Data on seven compounds can be found in patent publication US6906188B2, “Method for synthesizing epothilones and epothilone analogs” (State of Oregon acting by and through the State Board of …, priority 2001, dated 2005).

Data set [1] deals with porcine tubulin (Sus scrofa, UniProt P02554). The experiment in a line: Induction of porcine tubulin polymerization. It counts as biochemical.
Data set [2] relates to KB-31 (Epidermoid). Kind of data set: Antiproliferative activity (growth inhibition), KB-31 cells. It counts as cell-based. The following applies: Homo sapiens. On the procedure: (§1) The antiproliferative activity of cis 9,10-dehydroepothilone D and trans 9,10-dehydroepothilone D was assessed in vitro using a panel of human cancer cell lines.
In data set [3] the test system is KB-8511 (Epidermoid), Pgp-overexpressing sub-line of KB-31. Kind of data set: Antiproliferative activity (growth inhibition), KB-8511 cells. The following applies: Homo sapiens. On the procedure: as §1
Data set [4] has as its system A549 (lung). The experiment in a line: Antiproliferative activity (growth inhibition), A549 cells. Conditions: Homo sapiens. It counts as cell-based. On the procedure: as §1
The subject of data set [5] is HCT-116 (colon). The experiment in a line: Antiproliferative activity (growth inhibition), HCT-116 cells. The following applies: Homo sapiens. It counts as cell-based. On the procedure:
as §1

The test system of data set [6] is PC3-M (prostate). The experiment in a line: Antiproliferative activity (growth inhibition), PC3-M cells. Conditions: Homo sapiens, PC-3M, read-out: IC50 PC3-M (prostate). It counts as cell-based. On the procedure: as §1
For data set [7], the system named is MCF-7 (breast). The experiment in a line: Antiproliferative activity (growth inhibition), MCF-7 cells. The following applies: Homo sapiens. It is filed as cell-based. On the procedure:
as §1

Data set [8] deals with panel of human cancer cell lines. The experiment in a line: Antiproliferative activity across the cell line panel. It is filed as cell-based. An excerpt:
Known epothilones have significant biological activity.

Data set [9] has as its system tubulin. Conditions: Merck comparison with Taxol; cited from earlier work.
Data set [10] has as its system Pgp-expressing MDR neuroblastoma cell line (SK-N SH). The following applies: cited from earlier work.
The test system of data set [11] is Potorous tridactylis kidney epithelial (PtK2) cells. Conditions: indirect immunofluorescence; cited from earlier work.
In data set [12] the test system is subcutaneous implantations of tumor tissues. Conditions: mice, subcutaneous tumor implants, Sloan Kettering; cited from earlier work.
Data set [13] deals with IFN-γ-treated murine-macrophage. The following applies: IFN-γ-treated murine macrophages; cited from earlier work.
Where [14] appears, read: 5 μM compound, relative to the effect of Epothilone B at 25 μM defined as 100%.
Where [15] appears, read: KB 3-1, Table 1, mean of three independent experiments, read-out: IC50 KB-31 (Epidermoid).
[16] abbreviates: KB 3-1, read-out: IC50 KB-8511 (Epidermoid), Table 1, Pgp-overexpressing sub-line, mean of three independent experiments.
Setting [17] is: A549, mean of three independent experiments, read-out: IC50 A549 (lung).
[18] abbreviates: HCT-116, mean of three independent experiments, read-out: IC50 HCT-116 (colon).
The mark [19] stands for this setting: mean of three independent experiments.
Where [20] appears, read: MCF7, mean of three independent experiments, read-out: IC50 MCF-7 (breast).
Setting [21] is: antiproliferative potency, cell line panel of Table 1.
Where [22] appears, read: Table 2, under the conditions used for Table 1, unit not given.
Setting [23] is: KB 3-1, Table 2, under the conditions used for Table 1 (there nM), unit inferred, read-out: IC50 KB-31 (Epidermoid).
Setting [24] is: KB 3-1, read-out: IC50 KB-8511 (Epidermoid).
[25] abbreviates: KB 3-1, read-out: IC50 KB-31 (Epidermoid), Table 2, under the conditions used for Table 1 (there nM), unit inferred.
The mark [26] stands for this setting: KB 3-1, read-out: IC50 KB-8511 (Epidermoid), Table 2, under the conditions used for Table 1 (there nM), unit inferred.
[27] abbreviates: A549, read-out: IC50 A549 (lung).
Setting [28] is: HCT-116, read-out: IC50 HCT-116 (colon).
Setting [29] is: MCF7, read-out: IC50 MCF-7 (breast).

Structures are written as SMILES. Like-named read-outs stand apart in the source and are kept apart here.

Chain of porcine tubulin (P02554 whole entry): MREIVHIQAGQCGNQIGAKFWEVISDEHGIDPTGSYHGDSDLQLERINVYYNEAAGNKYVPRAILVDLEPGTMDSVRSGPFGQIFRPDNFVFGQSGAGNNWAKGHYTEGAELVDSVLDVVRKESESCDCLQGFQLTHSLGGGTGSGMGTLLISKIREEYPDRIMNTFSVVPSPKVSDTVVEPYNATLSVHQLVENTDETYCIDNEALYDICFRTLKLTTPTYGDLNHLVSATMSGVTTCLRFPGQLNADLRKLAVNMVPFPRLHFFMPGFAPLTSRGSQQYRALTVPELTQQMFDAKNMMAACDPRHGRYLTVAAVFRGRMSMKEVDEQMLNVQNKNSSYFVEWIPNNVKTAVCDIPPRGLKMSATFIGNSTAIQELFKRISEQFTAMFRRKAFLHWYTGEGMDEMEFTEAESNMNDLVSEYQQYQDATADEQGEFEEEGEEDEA
Chain of porcine tubulin (P02550 whole entry partner): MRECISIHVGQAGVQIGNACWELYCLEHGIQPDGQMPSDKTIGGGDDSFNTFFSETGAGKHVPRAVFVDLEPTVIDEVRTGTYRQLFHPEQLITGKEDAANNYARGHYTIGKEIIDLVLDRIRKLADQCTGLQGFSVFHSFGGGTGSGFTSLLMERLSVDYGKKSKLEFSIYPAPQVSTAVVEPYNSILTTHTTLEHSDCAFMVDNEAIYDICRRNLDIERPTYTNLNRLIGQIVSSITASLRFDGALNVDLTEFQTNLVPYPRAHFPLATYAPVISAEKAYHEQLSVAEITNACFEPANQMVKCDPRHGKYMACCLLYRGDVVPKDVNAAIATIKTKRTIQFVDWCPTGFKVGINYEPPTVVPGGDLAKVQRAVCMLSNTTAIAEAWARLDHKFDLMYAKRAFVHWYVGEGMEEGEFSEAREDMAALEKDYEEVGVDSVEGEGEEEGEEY

With `C/C1=C/C[C@@H](/C(C)=C/c2csc(C)n2)OC(=O)C[C@H](O)C(C)(C)C(=O)[C@H](C)[C@@H](O)[C@@H](C)/C=C\C1` [9,10-cis-Dehydroepothilone D, 9,10-dehydrodes-epoxyepothilone B], in data set [1] (setting [14]), the “Tubulin Polym.” value is listed as 56%. Further, the IC50 (in general, the concentration that inhibits the measured activity by half) in [2] (setting [15]) came to 59.4 nM; in [3] (setting [16]) it was 28.5 nM; in data set [4] (setting [17]), 109 nM; in data set [5] (setting [18]) it was 102 nM; in [6] (setting [19]) it was 146 nM; in data set [7] (setting [20]), 72 nM. Besides, the “fold less potent than epothilone B” value in [8] (setting [21]) is listed as 330- to 670 fold. For the same compound, the “fold less potent than natural epothilone D” value in [8] (setting [21]) was 20- to 30 fold.
For the compound `C/C1=C/C[C@@H](/C(C)=C/c2csc(C)n2)OC(=O)C[C@H](O)C(C)(C)C(=O)[C@H](C)[C@@H](O)[C@@H](C)C(=O)OC1` [Bislactone], the “Tubulin Polym.” value in data set [1] (setting [22]) turned out to be 21.4. For the same compound, the IC50 in data set [2] (setting [23]) came to 25.5 nM; in data set [3] (setting [24]), 25.2 nM.
For the compound `C/C(=C\c1csc(C)n1)[C@@H]1CC2O[C@@H]2CCC[C@H](C)[C@H](O)[C@@H](C)C(=O)C(C)(C)[C@@H](O)CC(=O)O1` (stereo partly drawn) [Epothilone A], in data set [9], the “potency as tubulin polymerization agent (rank order)” value was “epothilone B>epothilone A>Taxol”. Besides, the “activity against Pgp-expressing MDR neuroblastoma cell line” value in data set [10] is listed as “active”.
On to `C/C(=C\c1csc(C)n1)[C@@H]1C[C@@H]2O[C@]2(C)CCC[C@H](C)[C@H](O)[C@@H](C)C(=O)C(C)(C)[C@@H](O)CC(=O)O1` [Epothilone B], for which the “Tubulin Polym.” value worked out at 95% in [1] (setting [14]) and 81.4 in data set [1] (setting [22]). In addition, the half-maximal inhibitory concentration (IC50) in data set [2] (setting [25]) stood at 0.24 nM; in data set [3] (setting [16]), 0.16 nM; in data set [3] (setting [26]), 0.15 nM; in data set [4] (setting [27]), 0.16 nM; in data set [5] (setting [28]) it was 0.34 nM; in data set [6], 0.32 nM. Further, the IC50 in data set [7] (setting [29]) was determined as 0.29 nM. Further, in data set [9], the “potency as tubulin polymerization agent (rank order)” value was “epothilone B>epothilone A>Taxol”. Besides, the “formation of microtubule bundles” value in data set [11] was “most active, inducing extensive formation of microtubule bundles”. The “in vivo antitumor effect compared with Taxol” value in [12] was “superiority”. Besides, the “macrophage stimulatory activity as measured by nitric oxide release” value in data set [13] is reported as “lacked any IFN-γ-treated murine-macrophage stimulatory activity”.
Take `C/C1=C/C[C@@H](/C(C)=C/c2csc(C)n2)OC(=O)C[C@H](O)C(C)(C)C(=O)[C@H](C)[C@@H](O)[C@@H](C)CCC1` [Epothilone D]: the figures for the “Tubulin Polym.” value in [1] (setting [14]) and in data set [1] (setting [22]) were 88% and 62.3, respectively. Further, the IC50 in [2] (KB 3-1, read-out: IC50 KB-31 (Epidermoid), Table 1, mean of three independent experiments) was 1.94 nM; in data set [2] (setting [25]), 1.94 nM; in [3] (setting [24]), 1 nM; in data set [4] (setting [27]), 4.62 nM; in data set [5] (setting [28]), 4.48 nM; in [6], 7.4 nM. In addition, the IC50 in data set [7] (setting [29]) is 2.31 nM.
For `CC(=O)O[C@H]1C(=O)[C@@]2(C)[C@H]([C@H](OC(=O)c3ccccc3)[C@]3(O)C[C@H](OC(=O)[C@H](O)[C@@H](NC(=O)c4ccccc4)c4ccccc4)C(C)=C1C3(C)C)[C@]1(OC(C)=O)CO[C@@H]1C[C@@H]2O` [Paclitaxel (Taxol), Paclitaxel], the results for the “Tubulin Polym.” value in data set [1] (setting [14]) and in data set [1] (setting [22]) were 53% and 38.9, respectively. Also, the 50% inhibitory concentration (IC50) turned out to be 2.67 nM in [2] (setting [15]); 2.9 nM in data set [2] (setting [23]); 842 nM in [3] (setting [16]); 661 nM in data set [3] (setting [26]); 5.19 nM in data set [4] (setting [17]); 4.88 nM in data set [5] (setting [18]). The IC50 in data set [6] (setting [19]) was determined as 6.62 nM; in data set [7] (setting [20]) it was 3.26 nM.
`C/C1=C\C[C@@H](/C(C)=C/c2csc(C)n2)OC(=O)C[C@H](O)C(C)(C)C(=O)[C@H](C)[C@@H](O)[C@@H](C)/C=C/C1` [trans 9,10, trans 12,13-dehydroepothilone D]: in [1] (setting [14]), the “Tubulin Polym.” value is given as 36%. In addition, the half-inhibitory concentration (IC50) is 104 nM in data set [2] (setting [15]); 70.4 nM in data set [3] (setting [16]); 109 nM in [4] (setting [17]); 110 nM in [5] (setting [18]); 147 nM in data set [6] (setting [19]); 95 nM in data set [7] (setting [20]). Further, the “average IC50 for growth inhibition, fold higher than cis 9,10-dehydroepothilone D” value in data set [8] (average over the cell line panel) is 1.36 fold.
